From publication PMC4854315, “Discovery of a novel allosteric inhibitor-binding site in ERK5: comparison with the canonical kinase hinge ATP-binding site” (Acta Crystallographica. Section D, Structural Biology, 2016)

Assays:
Assay in all cases: Z'-LYTE kinase panel
Format in all cases: biochemical
[1] = target: T1, PRKD2 (PKD2) (Homo sapiens, UniProt Q9BZL6)
T1 construct: purchased ThermoFisher (SelectScreen, Z'-LYTE)
T1 sequence (Q9BZL6 1-878): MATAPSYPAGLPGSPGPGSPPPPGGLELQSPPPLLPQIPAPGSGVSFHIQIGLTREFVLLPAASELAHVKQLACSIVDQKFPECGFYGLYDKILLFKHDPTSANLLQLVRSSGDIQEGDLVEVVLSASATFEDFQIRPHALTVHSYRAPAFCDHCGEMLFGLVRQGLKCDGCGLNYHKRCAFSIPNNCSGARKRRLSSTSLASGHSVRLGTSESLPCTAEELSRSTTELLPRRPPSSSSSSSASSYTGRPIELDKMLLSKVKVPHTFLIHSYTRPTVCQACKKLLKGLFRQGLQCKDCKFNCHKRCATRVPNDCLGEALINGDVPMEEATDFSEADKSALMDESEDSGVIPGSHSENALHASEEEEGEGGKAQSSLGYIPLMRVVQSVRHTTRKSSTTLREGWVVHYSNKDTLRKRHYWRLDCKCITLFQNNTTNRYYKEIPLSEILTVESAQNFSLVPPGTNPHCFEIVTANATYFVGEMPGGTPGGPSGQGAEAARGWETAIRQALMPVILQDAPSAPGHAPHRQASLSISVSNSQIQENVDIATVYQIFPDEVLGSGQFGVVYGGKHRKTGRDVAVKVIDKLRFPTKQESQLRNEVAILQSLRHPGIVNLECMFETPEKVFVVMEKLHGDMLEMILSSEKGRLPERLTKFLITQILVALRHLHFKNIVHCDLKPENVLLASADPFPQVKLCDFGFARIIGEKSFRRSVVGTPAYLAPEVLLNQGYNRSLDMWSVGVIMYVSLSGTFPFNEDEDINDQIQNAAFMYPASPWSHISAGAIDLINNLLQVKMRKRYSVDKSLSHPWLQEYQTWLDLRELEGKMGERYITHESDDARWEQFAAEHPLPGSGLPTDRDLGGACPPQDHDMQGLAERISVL
Outline: (§1)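 Percent inhibition measured at 10 µM compound using the standard Z′-LYTE protocol, as part of a 225-kinase standard panel screen.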

[2] = target: T2, CSNK1G1 (CK1 gamma 1) (Homo sapiens, UniProt Q9HCP0)
T2 construct: purchased ThermoFisher (SelectScreen, Z'-LYTE)
Outline: as §1

[3] = target: T3, TYK2 (Homo sapiens, UniProt P29597); conditions: 10 µM compound, ATP Km app
T3 construct: purchased ThermoFisher (SelectScreen, Z'-LYTE)
T3 sequence (P29597 whole entry): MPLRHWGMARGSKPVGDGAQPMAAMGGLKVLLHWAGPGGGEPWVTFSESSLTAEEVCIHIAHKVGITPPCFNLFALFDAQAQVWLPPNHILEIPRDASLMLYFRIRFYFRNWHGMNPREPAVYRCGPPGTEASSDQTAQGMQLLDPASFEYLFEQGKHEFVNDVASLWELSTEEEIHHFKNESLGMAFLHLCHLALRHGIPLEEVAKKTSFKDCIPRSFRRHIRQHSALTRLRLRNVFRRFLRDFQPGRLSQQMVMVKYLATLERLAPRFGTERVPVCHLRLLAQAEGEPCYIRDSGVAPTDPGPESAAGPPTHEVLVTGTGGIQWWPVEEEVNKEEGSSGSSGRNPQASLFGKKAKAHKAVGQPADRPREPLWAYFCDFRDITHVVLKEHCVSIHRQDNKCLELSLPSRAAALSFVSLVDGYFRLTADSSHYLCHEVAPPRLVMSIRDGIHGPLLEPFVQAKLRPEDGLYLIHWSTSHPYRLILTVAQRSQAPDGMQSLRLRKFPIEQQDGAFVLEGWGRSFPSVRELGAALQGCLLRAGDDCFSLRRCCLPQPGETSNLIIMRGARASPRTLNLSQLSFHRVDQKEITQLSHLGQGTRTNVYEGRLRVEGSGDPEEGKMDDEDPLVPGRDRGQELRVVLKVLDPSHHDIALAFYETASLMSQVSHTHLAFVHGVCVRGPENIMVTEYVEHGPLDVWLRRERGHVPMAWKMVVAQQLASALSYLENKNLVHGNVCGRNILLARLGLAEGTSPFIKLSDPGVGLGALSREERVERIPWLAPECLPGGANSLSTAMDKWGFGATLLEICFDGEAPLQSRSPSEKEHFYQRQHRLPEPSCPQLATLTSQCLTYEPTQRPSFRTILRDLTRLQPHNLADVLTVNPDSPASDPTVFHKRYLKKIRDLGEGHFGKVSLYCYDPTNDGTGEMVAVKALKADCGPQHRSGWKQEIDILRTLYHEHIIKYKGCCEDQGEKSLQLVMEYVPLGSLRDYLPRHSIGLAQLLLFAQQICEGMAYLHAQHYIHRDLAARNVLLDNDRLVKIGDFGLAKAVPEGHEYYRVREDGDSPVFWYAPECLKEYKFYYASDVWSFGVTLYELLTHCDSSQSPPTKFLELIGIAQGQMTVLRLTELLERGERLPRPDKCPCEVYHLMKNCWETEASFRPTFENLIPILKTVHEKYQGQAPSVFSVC
Outline: as §1

[4] = target: T4, PRKCB2 (PKC beta II) (Homo sapiens, UniProt P05771)
T4 construct: purchased ThermoFisher (SelectScreen, Z'-LYTE)
Outline: as §1

[5] = target: T5, RET (Homo sapiens, UniProt P07949)
T5 construct: purchased ThermoFisher (SelectScreen, Z'-LYTE)
T5 sequence (P07949 29-1114): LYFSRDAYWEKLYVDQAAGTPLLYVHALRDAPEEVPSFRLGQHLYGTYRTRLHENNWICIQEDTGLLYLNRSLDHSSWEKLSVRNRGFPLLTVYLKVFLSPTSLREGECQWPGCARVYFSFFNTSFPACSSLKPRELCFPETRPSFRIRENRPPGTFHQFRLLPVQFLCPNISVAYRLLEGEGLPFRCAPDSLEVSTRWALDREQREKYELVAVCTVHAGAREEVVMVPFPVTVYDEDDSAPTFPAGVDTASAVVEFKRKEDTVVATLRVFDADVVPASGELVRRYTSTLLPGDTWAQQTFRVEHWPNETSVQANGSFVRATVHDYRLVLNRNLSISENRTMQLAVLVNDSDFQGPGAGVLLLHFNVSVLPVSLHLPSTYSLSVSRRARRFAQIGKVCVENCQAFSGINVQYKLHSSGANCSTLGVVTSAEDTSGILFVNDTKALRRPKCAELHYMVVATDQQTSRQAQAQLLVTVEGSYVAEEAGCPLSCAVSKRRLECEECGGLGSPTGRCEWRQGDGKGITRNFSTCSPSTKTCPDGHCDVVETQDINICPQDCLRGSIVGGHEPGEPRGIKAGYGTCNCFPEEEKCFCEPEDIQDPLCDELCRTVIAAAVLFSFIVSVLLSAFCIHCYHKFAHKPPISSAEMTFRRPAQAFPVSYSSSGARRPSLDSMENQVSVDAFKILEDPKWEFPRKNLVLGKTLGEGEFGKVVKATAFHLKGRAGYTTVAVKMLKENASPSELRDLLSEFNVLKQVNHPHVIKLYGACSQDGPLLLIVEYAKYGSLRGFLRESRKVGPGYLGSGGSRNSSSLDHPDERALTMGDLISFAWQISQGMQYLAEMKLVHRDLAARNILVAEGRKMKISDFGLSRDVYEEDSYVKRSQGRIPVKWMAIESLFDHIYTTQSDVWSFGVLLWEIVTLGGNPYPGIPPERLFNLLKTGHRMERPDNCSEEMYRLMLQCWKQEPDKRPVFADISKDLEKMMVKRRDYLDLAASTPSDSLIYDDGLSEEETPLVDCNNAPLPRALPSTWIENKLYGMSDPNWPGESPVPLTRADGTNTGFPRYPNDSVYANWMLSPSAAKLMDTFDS
Outline: as §1

[6] = target: T6, AURKB (Aurora B) (Homo sapiens, UniProt Q96GD4)
T6 construct: purchased ThermoFisher (SelectScreen, Z'-LYTE)
Outline: as §1

[7] = target: T7, BLK (Homo sapiens, UniProt P51451)
T7 construct: purchased ThermoFisher (SelectScreen, Z'-LYTE)
T7 sequence (P51451 whole entry): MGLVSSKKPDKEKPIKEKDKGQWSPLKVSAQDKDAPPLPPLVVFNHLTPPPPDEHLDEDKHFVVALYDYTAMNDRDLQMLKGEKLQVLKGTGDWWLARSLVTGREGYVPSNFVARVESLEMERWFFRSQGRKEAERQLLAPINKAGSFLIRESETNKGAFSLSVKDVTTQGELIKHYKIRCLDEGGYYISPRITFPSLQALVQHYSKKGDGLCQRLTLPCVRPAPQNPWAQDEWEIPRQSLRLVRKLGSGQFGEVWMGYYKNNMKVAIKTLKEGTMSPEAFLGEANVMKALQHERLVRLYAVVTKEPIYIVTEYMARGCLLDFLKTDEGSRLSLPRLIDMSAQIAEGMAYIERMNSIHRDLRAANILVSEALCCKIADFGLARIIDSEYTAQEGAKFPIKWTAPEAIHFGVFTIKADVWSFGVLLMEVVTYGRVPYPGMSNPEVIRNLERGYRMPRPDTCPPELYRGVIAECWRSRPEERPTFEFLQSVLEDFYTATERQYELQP
Outline: as §1

[8] = target: T8, PAK1 (Homo sapiens, UniProt Q13153)
T8 construct: purchased ThermoFisher (SelectScreen, Z'-LYTE)
T8 sequence (Q13153 whole entry): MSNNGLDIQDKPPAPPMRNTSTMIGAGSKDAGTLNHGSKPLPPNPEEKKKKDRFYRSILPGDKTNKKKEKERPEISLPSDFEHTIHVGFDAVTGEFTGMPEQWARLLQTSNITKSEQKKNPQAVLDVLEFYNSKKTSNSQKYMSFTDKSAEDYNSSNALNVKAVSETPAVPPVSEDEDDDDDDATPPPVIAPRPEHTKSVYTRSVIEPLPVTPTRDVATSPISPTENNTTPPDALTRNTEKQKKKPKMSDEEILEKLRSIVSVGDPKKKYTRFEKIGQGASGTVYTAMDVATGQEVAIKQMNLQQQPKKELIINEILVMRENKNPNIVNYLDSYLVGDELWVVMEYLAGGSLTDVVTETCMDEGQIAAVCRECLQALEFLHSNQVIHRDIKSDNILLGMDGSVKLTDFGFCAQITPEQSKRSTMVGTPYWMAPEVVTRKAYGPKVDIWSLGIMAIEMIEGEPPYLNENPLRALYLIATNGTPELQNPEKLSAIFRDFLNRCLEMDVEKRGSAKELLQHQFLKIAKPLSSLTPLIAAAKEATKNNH
Outline: as §1

[9] = target: T9, CDK1/cyclin B (Homo sapiens, UniProt P06493)
T9 construct: purchased ThermoFisher (SelectScreen, Z'-LYTE)
T9 sequence (P06493 whole entry): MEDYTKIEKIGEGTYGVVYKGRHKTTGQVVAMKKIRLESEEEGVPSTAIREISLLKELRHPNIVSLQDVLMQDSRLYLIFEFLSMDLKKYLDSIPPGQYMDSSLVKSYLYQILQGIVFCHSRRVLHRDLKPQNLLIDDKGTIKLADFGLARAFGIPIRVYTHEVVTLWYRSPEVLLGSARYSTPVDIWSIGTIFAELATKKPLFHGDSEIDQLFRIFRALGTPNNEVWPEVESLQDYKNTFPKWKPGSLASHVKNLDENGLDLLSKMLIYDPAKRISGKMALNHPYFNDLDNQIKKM
T9 sequence (P14635 whole entry partner): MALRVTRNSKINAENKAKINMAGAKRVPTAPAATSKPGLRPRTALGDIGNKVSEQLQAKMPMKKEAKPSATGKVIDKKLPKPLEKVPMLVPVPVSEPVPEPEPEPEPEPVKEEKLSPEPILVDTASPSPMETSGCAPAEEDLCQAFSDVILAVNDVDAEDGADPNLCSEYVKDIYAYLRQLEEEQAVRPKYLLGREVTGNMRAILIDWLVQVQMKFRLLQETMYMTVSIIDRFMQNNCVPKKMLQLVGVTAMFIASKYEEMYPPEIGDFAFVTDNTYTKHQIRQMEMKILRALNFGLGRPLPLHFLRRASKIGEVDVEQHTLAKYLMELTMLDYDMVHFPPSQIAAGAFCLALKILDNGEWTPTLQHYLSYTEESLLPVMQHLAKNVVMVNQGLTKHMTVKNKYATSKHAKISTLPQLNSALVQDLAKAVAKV
Outline: as §1

[10] = target: T10, MAPK14 (p38 alpha) (Homo sapiens, UniProt Q16539); conditions: 10 µM compound; ATP 100
T10 construct: purchased ThermoFisher (SelectScreen, Z'-LYTE)
T10 sequence (Q16539 whole entry): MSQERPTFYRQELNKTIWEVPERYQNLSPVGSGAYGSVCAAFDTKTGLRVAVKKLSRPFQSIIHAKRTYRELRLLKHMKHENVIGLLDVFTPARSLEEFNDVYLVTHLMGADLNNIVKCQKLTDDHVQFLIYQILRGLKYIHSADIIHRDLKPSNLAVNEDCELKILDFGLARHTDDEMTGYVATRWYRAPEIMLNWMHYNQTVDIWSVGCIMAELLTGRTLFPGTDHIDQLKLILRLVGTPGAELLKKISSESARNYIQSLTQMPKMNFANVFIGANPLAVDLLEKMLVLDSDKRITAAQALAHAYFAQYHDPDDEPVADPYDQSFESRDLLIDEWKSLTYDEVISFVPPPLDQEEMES
Outline: as §1

[11] = target: T11, EPHA1 (Homo sapiens, UniProt P21709)
T11 construct: purchased ThermoFisher (SelectScreen, Z'-LYTE)
T11 sequence (P21709 26-976): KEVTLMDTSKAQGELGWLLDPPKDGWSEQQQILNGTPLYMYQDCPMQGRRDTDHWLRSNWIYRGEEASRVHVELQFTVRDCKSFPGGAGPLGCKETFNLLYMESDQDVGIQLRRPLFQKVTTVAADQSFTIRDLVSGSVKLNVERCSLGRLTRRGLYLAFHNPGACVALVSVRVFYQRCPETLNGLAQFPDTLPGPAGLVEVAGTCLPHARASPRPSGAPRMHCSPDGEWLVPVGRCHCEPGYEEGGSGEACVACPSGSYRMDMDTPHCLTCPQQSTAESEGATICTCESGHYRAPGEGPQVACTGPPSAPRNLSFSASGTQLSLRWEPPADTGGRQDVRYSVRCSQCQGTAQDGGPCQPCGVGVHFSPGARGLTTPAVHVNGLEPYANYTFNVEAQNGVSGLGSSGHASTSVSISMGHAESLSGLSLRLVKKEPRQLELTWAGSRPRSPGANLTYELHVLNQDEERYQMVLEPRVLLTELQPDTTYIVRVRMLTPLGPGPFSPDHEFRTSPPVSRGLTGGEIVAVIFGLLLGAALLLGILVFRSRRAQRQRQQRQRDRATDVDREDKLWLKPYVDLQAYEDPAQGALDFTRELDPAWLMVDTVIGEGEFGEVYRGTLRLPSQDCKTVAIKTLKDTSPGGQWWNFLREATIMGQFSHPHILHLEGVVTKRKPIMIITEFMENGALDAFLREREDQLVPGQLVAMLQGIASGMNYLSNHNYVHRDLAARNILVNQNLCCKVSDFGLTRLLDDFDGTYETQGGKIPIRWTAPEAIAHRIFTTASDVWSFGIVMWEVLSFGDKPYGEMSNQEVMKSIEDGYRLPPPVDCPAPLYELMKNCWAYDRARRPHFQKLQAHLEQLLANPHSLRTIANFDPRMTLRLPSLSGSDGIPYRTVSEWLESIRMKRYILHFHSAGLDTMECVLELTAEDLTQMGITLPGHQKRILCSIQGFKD
Outline: as §1

[12] = target: T12, ERBB2 (HER2) (Homo sapiens, UniProt P04626)
T12 construct: purchased ThermoFisher (SelectScreen, Z'-LYTE)
Outline: as §1

[13] = target: T13, PIM1 (Homo sapiens, UniProt P11309)
T13 construct: purchased ThermoFisher (SelectScreen, Z'-LYTE)
T13 sequence (P11309 whole entry): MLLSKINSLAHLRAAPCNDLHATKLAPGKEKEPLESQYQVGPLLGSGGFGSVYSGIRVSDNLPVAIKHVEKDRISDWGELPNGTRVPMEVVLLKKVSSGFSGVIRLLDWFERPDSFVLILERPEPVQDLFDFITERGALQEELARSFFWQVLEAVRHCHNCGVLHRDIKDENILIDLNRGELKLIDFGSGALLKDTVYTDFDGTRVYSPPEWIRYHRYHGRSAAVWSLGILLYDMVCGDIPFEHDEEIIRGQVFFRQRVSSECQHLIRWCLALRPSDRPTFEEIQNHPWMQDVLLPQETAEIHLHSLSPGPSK
Outline: as §1

[14] = target: T14, PKN1 (PRK1) (Homo sapiens, UniProt Q16512)
T14 construct: purchased ThermoFisher (SelectScreen, Z'-LYTE)
Outline: as §1

Row | Molecule | inhibition at 10 µM [1] | inhibition at 10 µM [2] | inhibition at 10 µM [3] | inhibition at 10 µM [4] | inhibition at 10 µM [5] | inhibition at 10 µM [6] | inhibition at 10 µM [7] | inhibition at 10 µM [8] | inhibition at 10 µM [9] | inhibition at 10 µM [10] | inhibition at 10 µM [11] | inhibition at 10 µM [12] | inhibition at 10 µM [13] | inhibition at 10 µM [14] | further results
1 | Cc1ncc(-c2nc(Nc3ccc(C(=O)NCCN4CCCCC4)cc3)ncc2F)n1C(C)C [Compound 3] | 95% | 70% | 101% | 89% | 95% | 88% | 65% | 51% | 96% | 22% | 98% | -1.66% | 65% | 62% | 
2 | Cc1cc(Nc2nc(N)nn2C(=O)NC(C)C)ccc1Cl [Compound 5] | 9% | 8% | > 80% | -12% | 44% | 68% | 22% | -12% | 56% | 26% | 11% | -29% | -1.79% | -3.54% | TYK2 % Inhibition ([3]; listed as SN1109056190, 10 µM): 94%
3 | XMD8-92 [Compound 2, reference compound] |  |  |  |  |  |  |  |  |  |  |  |  |  |  | PRKD2 (PKD2) % Inhibition ([1]; 10 µM compound, ATP Km app): 21%; CSNK1G1 (CK1 gamma 1) % Inhibition ([2]; 10 µM compound, ATP Km app): 24%; TYK2 % Inhibition [3]: 36%; PRKCB2 (PKC beta II) % Inhibition ([4]; 10 µM compound, ATP Km app): 38%; RET % Inhibition ([5]; 10 µM compound, ATP Km app): 40%; AURKB (Aurora B) % Inhibition ([6]; 10 µM compound, ATP Km app): 39%; BLK % Inhibition ([7]; 10 µM compound, ATP Km app): 38%; PAK1 % Inhibition ([8]; 10 µM compound, ATP Km app): 8%; CDK1/cyclin B % Inhibition ([9]; 10 µM compound, ATP Km app): 8.43%; MAPK14 (p38 alpha) % Inhibition [10]: 99%; EPHA1 % Inhibition ([11]; 10 µM compound, ATP Km app): 9.48%; ERBB2 (HER2) % Inhibition ([12]; 10 µM compound, ATP Km app): -17%; PIM1 % Inhibition ([13]; 10 µM compound, ATP Km app): 35%; PKN1 (PRK1) % Inhibition ([14]; 10 µM compound, ATP Km app): 1.26%
